pIC50: −log10 of the molar value.

This is an account of results in patent US20250051315A1, “COMPOUND, ANGIOTENSIN II TYPE 1 RECEPTOR ANTAGONIST AND PHARMACEUTICAL COMPOSITION” (Alchemedicine, Inc., priority 2021, published 2025).

The target of experiment [1] is T1, human angiotensin II type 1 receptor (Homo sapiens, UniProt P30556).
T1 construct: expressed in transfected cells; host or cells: CHO-K1-mt aequorin-Gα16 cells
T1 sequence (P30556 1-359): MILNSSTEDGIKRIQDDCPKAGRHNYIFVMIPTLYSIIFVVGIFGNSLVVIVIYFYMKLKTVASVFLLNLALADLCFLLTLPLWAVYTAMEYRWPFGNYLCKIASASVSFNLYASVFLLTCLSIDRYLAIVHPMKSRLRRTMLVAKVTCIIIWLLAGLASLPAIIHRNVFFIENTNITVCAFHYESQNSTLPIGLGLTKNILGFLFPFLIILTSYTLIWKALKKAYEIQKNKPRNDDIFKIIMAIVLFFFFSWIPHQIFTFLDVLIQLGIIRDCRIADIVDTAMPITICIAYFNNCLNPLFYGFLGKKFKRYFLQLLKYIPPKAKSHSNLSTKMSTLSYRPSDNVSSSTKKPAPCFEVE
The experiment in a line: Angiotensin II type 1 receptor inhibitory effect (aequorin luminescence, angiotensin II at EC80). It counts as cell-based. Conditions: CHO-K1-mt aequorin-Gα16 cells expressing human AT1 receptor. The method, then: The inhibitory effect on angiotensin II type 1 receptor was studied by the following method.
CHO-K1-mt aequorin-Gα16 cells forced to express human angiotensin II type 1 receptor (Accession Number: NP 000676.1) were cultured in an antibiotic-free medium for 18 hours and then treated with PBS-EDTA (5 mM EDTA). After centrifugation (2 minutes, 405×g, room temperature), the cells were suspended in assay buffer (DMEM/HAM's F12 with HEPES+0.1% BSA protease free).
1×10^6 cells/mL of the cells were incubated at room temperature for 4 hours or more in the presence of Coelenterazin h (Molecular Probes) at a final concentration of 5 µM to confirm the agonist response by angiotensin II, and determine the concentration of angiotensin II corresponding to EC 80.
Then, 50 μL of the cell suspension treated with Coelenterazin h at 10,000 cells/well and 50 μL of assay buffer containing the test substance (final concentration: 0.5% DMSO) were added to a 96-well plate. After 15 minutes, 100 μL of angiotensin II solution was added so that the final concentration reached the EC80 concentration, and the receptor activity was measured by the amount of luminescence using FDSS6000 (Hamamatsu Photonics). IC50 values were calculated using XLfit (IDBS).

Experiment [2] concerns the target T2, human endothelin A receptor (Homo sapiens, UniProt P25101).
T2 construct: expressed in transfected cells; host or cells: CHO-K1-mt aequorin cells
T2 sequence (P25101 21-427): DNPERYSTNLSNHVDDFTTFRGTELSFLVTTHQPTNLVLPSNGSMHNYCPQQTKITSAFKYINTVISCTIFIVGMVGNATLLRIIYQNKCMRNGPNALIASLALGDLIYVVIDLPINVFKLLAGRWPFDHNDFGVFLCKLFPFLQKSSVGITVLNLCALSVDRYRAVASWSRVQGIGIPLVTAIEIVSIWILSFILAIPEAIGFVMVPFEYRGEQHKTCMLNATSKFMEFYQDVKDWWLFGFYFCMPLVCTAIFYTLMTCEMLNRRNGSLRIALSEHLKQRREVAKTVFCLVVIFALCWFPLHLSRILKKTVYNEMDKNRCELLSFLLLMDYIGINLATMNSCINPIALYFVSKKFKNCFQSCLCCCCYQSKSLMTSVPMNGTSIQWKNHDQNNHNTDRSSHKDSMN
The experiment in a line: Endothelin A receptor inhibitory effect (aequorin luminescence, endothelin at EC80). It counts as cell-based. Conditions: CHO-K1-mt aequorin cells expressing human endothelin A receptor, read-out: ETA Receptor Inhibitory Effect. The method, then: The inhibitory effect on endothelin A receptor was studied by the following method.
CHO-K1-mt aequorin cells forced to express human endothelin A receptor (Accession Number: NP_001948.1) were cultured in an antibiotic-free medium for 18 hours and then treated with PBS-EDTA (5 mM EDTA). After centrifugation (2 minutes, 405×g, room temperature), the cells were suspended in assay buffer (DMEM/HAM'S F12 with HEPES+0.1% BSA protease free). 1×10^6 cells/mL of the cells were incubated at room temperature for 4 hours in the presence of Coelenterazin h (Molecular Probes) at a final concentration of 5 μM to confirm the agonist response by endothelin, and determine the concentration of endothelin corresponding to EC 80.
Then, 50 μL of the cell suspension treated with Coelenterazin h at 10,000 cells/well and 50 μL of assay buffer containing the test substance (final concentration: 0.5% DMSO) were added to a 96-well plate. After 15 minutes, endothelin was added so that the final concentration reached the EC80 concentration, and the receptor activity was measured by the amount of luminescence using FDSS6000 (Hamamatsu Photonics). IC50 values were calculated using XLfit (IDBS).

For experiment [3], the system named is Angiotensin II-Induced Hypertensive Activity. As to the kind of experiment: Suppressive effect on angiotensin II-induced hypertensive activity. It is filed as in vivo. Conditions: anesthetized male Wistar rats; 1 mg/kg intravenously over 10 minutes, then ATII 300 ng/kg i.v.; 20 seconds after ATII; n=3. As for the experimental part: Male Wistar rats aged 8 to 12 weeks underwent catheterization of the trachea for airway management, catheterization of the carotid artery for blood pressure measurement, and catheterization of the femoral vein for angiotensin II (ATII) administration, under analgesic treatment and urethane anesthesia. After confirming that blood pressure and heart rate had stabilized, 1 mg/kg (15 mL/kg) of solvent (PBS) or test substance (the compound of Example 1) adjusted with the solvent was administered intravenously over 10 minutes. Then, ATII (300 ng/kg) was administered intravenously and blood pressure was monitored until 10 minutes after administration. The test was performed with n=3 in each group. For analysis, using 2 minutes before ATII administration as a pre-value, the systolic and diastolic blood pressures at the pre-value and 20 seconds immediately after ATII administration, when the blood pressure is maximum, were determined and the differences (delta values) from the pre-values were calculated. Student's t-test was used to compare the delta values between the solvent administration group and test substance administration group.

For `CCCCC1=NC2(CCCC2)C(=O)N1Cc1ccc(-c2ccccc2S(=O)(=O)Nc2noc(C)c2C)c2c1COC2` [Example 1, 2-(7-((2-Butyl-4-oxo-1,3-diazaspiro[4,4]nona-1-en-3-yl)methyl)-1,3-dihydroisobenzofuran-4-yl)-N-(4,5-dimethylisoxazol-3-yl)benzenesulfonamide], the pIC50 in experiment [1] is at least 9.00. Moreover, the pIC50 in experiment [2] was under 7.00. Further, in experiment [3], the “Diastolic Blood Pressure, difference (delta value) from pre-value” was 9 ± 5 and the “Systolic Blood Pressure, difference (delta value) from pre-value” amounted to 8 ± 3.
As for `CCCCC1=NC2(CCCC2)C(=O)N1Cc1ccc(-c2ccccc2S(=O)(=O)Nc2ncc(C)nc2OC)c2c1COC2` [Example 2, 2-(7-((2-Butyl-4-oxo-1,3-diazaspiro[4,4]nona-1-en-3-yl)methyl)-1,3-dihydroisobenzofuran-4-yl)-N-(3-methoxy-5-methylpyrazin-2-yl)benzenesulfonamide], the pIC50 in experiment [1] and in experiment [2] was 7.00 to 9.00 each time.
For `CCCCC1=NC2(CCCC2)C(=O)N1Cc1ccc(-c2ccccc2S(=O)(=O)Nc2noc(C)c2Cl)c2c1COC2` [Example 3, 2-(7-((2-Butyl-4-oxo-1,3-diazaspiro[4,4]nona-1-en-3-yl)methyl)-1,3-dihydroisobenzofuran-4-yl)-N-(4-chloro-5-methylisoxazol-3-yl)benzenesulfonamide], the pIC50 in experiment [1] and in experiment [2] was 7.00 to 9.00 in each case.
